Results on 20 compounds are retold here after US6534524B1, “Indazole compounds and pharmaceutical compositions for inhibiting protein kinases, and methods for their use” (Agouron Pharmaceuticals, Inc., priority 1999, dated 2003).

Data set [1] concerns the target phosphorylated VEGF-R2Δ50 (FLVK-P) (Homo sapiens, UniProt P35968, DEL940-989/E990V). The data set can be described thus: VEGF-R2 coupled spectrophotometric assay, phosphorylated VEGF-R2Δ50 (FLVK-P).
A further data set has as its target CDK4/Cyclin D3 complex (Homo sapiens, UniProt P11802). The data set can be described thus: CDK4/Cyclin D assay ([32P]ATP, Rb fragment).
For the next data set, the target named is CDK2/Cyclin A (Homo sapiens, UniProt P24941). The data set can be described thus: CDK2/Cyclin A assay ([32P]ATP, Rb fragment). The format is biochemical.
The target in a further data set is T1, human CHK1 (FL-CHK1) (Homo sapiens, UniProt O14757).
T1 construct: C-terminally His-tagged full-length human CHK1 (FL-CHK1); made in house; host or cells: baculovirus/insect cell system
T1 sequence (O14757 1-476): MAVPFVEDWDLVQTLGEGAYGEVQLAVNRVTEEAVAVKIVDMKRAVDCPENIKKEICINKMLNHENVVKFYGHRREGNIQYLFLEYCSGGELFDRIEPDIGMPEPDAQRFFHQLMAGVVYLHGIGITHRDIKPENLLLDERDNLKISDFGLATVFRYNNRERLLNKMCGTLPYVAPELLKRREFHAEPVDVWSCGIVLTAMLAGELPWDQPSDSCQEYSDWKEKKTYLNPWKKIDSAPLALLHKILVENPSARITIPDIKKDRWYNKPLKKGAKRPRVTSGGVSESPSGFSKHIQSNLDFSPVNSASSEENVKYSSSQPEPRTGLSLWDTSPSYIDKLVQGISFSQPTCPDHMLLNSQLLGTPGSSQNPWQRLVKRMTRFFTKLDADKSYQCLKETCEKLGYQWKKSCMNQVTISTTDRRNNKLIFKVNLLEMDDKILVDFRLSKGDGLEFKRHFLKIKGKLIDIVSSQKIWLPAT
As to the kind of experiment: CHK1 assay (coupled spectrophotometric, Syntide-2). The format is biochemical. The method in brief: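 Full-length C-terminally His-tagged human CHK1 expressed in baculovirus/insect cells, used at 10 nM with Syntide-2 substrate. ADP formation coupled via PK/LDH to NADH oxidation, followed as absorbance decrease at 340 nm. Ki from initial rates at varying compound concentrations.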

The target in data set [2] is unphosphorylated VEGF-R2Δ50 (FLVK) (Homo sapiens, UniProt P35968, DEL940-989/E990V). As to the kind of experiment: VEGF-R2 coupled spectrophotometric assay, unphosphorylated VEGF-R2Δ50 (FLVK). The note with it: for Ki: FLVK Ki, Table 1; for inhibition at 0.05 µM: read-out: FLVK % inhibition.
The subject of data set [3] is human umbilical vein endothelial cells (HUVEC). As to the kind of experiment: HUVEC proliferation assay (VEGF-stimulated, MTT). The format is cell-based. The settings on record: Homo sapiens, HUVEC.
The next data set concerns the target human FGF-R1 (Homo sapiens, UniProt P11362, C488A/C584S/L457V). The data set can be described thus: FGF-R spectrophotometric assay. The settings on record: for inhibition at 1 µM: read-out: FGF-P % inhibition, Table 1, compound concentration 1 μM.
Data set [4] is described as follows: Human liver microsome (HLM) assay. The format is in vitro ADME. The settings on record: human liver microsomes, 5 μM test compound. The method in brief: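 LC-MS quantified test compound remaining after 0 and 2 h incubation with human liver microsomes. Triplicate samples, clarified by 10 min centrifugation at 14000 g.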
Data set [5] can be described thus: Determination of inhibitor concentration in mouse plasma after intraperitoneal and oral dosing. The format is in vivo. The note with it: PO. In a few lines: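 Plasma levels quantified by HPLC or LC-MS using a standard curve prepared in mouse plasma, following ethyl acetate extraction with internal standard and sodium hydroxide. Sampling at 0.5, 1, 4 h (ocular bleed) and 7 h (cardiac puncture) after oral or intraperitoneal dosing.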

Another data set concerns the target T2, LCK tyrosine kinase (Homo sapiens, UniProt P06239, C224D/P223M).
T2 construct: starting from amino acid residue 223 to the end of the protein at residue 509; made in house; host or cells: insect cells
As to the kind of experiment: LCK spectrophotometric assay. The format is biochemical. The note with it: Table 1; compound concentration 1 μM; read-out: Lck-P % inhibition. The protocol:
The production of ADP from ATP that accompanies phosphoryl transfer was coupled to oxidation of NADH using phosphoenolpyruvate (PEP) and a system having pyruvate kinase (PK) and lactic dehydrogenase (LDH). The oxidation of NADH was monitored by following the decrease of absorbance at 340 nm (e340=6.22 cm^−1 mM^−1) using a Beckman DU 650 spectrophotometer. […] Ki values were determined by measuring enzyme activity in the presence of varying concentrations of test compounds. The data were analyzed using Enzyme Kinetic and Kaleidagraph software.
The spectrophotometric assay was carried out as described above for VEGF-R2, except for the following changes in concentration: LCK=60 nM, MgCl2=0 mM, poly(E4Y1)=20 mM.

Read-outs that look alike come from different tables or passages of the source. Where only a bound is given, the exact number is not on record here.

Chain of unphosphorylated VEGF-R2Δ50 (FLVK) (P35968 with tags, fused parts or gaps DEL940-989/E990V limits assumed): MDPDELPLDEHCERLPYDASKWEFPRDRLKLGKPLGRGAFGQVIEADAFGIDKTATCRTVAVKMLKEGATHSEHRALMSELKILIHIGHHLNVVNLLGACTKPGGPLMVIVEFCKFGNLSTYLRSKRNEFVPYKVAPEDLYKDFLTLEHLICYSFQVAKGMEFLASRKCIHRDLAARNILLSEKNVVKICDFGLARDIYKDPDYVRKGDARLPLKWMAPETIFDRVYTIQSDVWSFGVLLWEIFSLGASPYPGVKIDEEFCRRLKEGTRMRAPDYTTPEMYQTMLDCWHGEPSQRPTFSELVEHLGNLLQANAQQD
Chain of phosphorylated VEGF-R2Δ50 (FLVK-P) (P35968 with tags, fused parts or gaps DEL940-989/E990V limits assumed): as above
Chain of human FGF-R1 (P11362 456-766 L457V/C488A/C584S): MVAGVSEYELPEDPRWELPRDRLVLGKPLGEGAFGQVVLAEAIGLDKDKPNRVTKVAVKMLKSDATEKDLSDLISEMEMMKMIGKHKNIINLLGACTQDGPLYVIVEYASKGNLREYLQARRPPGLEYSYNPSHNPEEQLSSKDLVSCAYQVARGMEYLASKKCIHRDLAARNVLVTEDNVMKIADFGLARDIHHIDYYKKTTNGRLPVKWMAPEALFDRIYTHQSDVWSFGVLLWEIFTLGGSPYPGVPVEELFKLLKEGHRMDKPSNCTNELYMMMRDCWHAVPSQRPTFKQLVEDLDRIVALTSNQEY
Chain of CDK4/Cyclin D3 complex (P11802 whole entry, the tested form may be a part): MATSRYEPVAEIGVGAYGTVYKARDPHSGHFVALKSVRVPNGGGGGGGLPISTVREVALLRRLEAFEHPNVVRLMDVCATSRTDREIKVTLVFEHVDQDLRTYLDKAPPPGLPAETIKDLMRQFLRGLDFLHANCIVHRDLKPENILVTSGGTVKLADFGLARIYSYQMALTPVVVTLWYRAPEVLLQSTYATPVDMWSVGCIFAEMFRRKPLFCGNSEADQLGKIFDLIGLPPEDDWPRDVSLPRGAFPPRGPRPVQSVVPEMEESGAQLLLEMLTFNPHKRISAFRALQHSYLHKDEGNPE
Chain of CDK4/Cyclin D3 complex (P30281 whole entry partner, the tested form may be a part): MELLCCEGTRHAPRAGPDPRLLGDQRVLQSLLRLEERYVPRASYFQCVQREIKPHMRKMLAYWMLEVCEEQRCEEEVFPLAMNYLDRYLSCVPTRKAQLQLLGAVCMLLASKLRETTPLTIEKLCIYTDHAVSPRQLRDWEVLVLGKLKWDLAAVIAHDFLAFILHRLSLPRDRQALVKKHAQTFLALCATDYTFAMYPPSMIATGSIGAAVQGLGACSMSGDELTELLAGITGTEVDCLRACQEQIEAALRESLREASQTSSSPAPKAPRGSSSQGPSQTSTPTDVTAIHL
T2 sequence (P06239 223-509 P223M/C224D): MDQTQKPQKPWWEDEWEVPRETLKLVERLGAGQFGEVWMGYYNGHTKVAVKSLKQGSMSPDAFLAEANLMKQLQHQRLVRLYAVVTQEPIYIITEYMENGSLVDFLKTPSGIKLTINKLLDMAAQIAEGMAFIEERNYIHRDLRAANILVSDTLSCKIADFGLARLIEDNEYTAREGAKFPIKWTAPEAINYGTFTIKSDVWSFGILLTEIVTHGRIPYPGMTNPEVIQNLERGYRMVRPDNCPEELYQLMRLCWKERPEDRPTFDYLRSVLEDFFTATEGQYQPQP

As for `C=CCOc1cc(-c2ccc3c(/C=C/c4ccc(OC)c(OC)c4)n[nH]c3c2)ccc1O` [Example 1(c), 3-[E-2-(3,4-Dimethoxy-phenyl)vinyl]-6-(3-allyloxy-4-hydroxy-phenyl)-1H-indazole], the inhibition constant Ki in data set [1] stood at 4.7 nM; on CDK4/Cyclin D3 complex, 670 nM; at CDK2/Cyclin A (Table 1) it was 560 nM; at human CHK1 (FL-CHK1) (Table 1, read-out: CHK-1 Ki), 78 nM; in data set [2], 1.4 nM. In addition, the IC50 in [3] (read-out: HUVEC IC50) was above 1000 nM.

Regarding `COc1cc(-c2ccc3c(-c4ccccc4)n[nH]c3c2)ccc1O` [Example 2(b), 3-Phenyl-6-(3-methoxy-4-hydroxy-phenyl)-1H-indazole], the Ki in data set [1] stood at 425 nM; on CDK4/Cyclin D3 complex it was 8000 nM; on CDK2/Cyclin A (Table 1) it was 2200 nM; in data set [2] it was 300 nM.

Take `CC(=O)Nc1cccc(Oc2ccc3c(/C=C/c4ccccc4)n[nH]c3c2)c1` [Example 4(b), N-[3-(3-Styryl-1H-indazol-6-yloxy)-phenyl]-acetamide]: the Ki in [1] came to 1.9 nM; at human FGF-R1, 49 nM; in [2] it was 2.7 nM.

With `C(=C\c1n[nH]c2cc(Oc3ccccc3)ccc12)/c1ccccc1` [Example 8(a), 3-(E-Styryl)-6-phenoxy-1H-indazole], the Ki amounted to 23 nM in data set [1]; 42 nM at human FGF-R1; 530 nM at human CHK1 (FL-CHK1) (Table 1, read-out: CHK-1 Ki); 3.2 nM in data set [2].

As for `C(=C\c1n[nH]c2cc(Sc3ccccc3)ccc12)/c1ccccc1` [Example 8(c)], the inhibition constant Ki in data set [1] was 16 nM; at human CHK1 (FL-CHK1) (Table 1, read-out: CHK-1 Ki), above 10000 nM; in [2], 2.6 nM.

Take `CC(=O)Nc1cccc(N(C)c2ccc3c(/C=C/c4ccccc4)n[nH]c3c2)c1` [Example 12(a), N-{3-[Methyl-(3-styryl-1H-indazol-6-yl)-amino]-phenyl}-acetamide]: the Ki in [1] was 6.9 nM; on human FGF-R1 it was 19 nM; in [2], 1.8 nM. Moreover, in data set [4], the “% remain (HLM, 2 h)” value is listed as 59%.

`CN(c1cccc(NC(=O)c2ccccc2)c1)c1ccc2c(/C=C/c3ccccc3)n[nH]c2c1` [Example 12(b), N-{3-[Methyl-(3-styryl-1H-indazol-6-yl)-aimino]-phenyl}-benzamide]: the Ki came out at 1.8 nM in data set [1], 31 nM on human FGF-R1 and 0.48 nM in data set [2].

For `O=C(Nc1cccc(C(=O)c2ccc3c(/C=C/c4ccccc4)n[nH]c3c2)c1)c1ccccc1` [Example 19(b), N-[3-(3-Styryl-1H-indazole-6-carbonyl)-phenyl]-benzamide], the Ki in [1] was found to be 6.6 nM; in data set [2] it was 0.49 nM. The “plasma half-life (T1/2)” value in data set [5] (50 mg/kg, vehicle PEG400:H2O pH 2.3 60:40) was “∞”.

Take `O=C(Nc1cccc(Sc2ccc3c(/C=C/c4ccccc4)n[nH]c3c2)c1)c1ccccc1` [Example 20(b), 6(3-(Benzoylamido)-phenylsulfanyl)-3-styryl-1H-indazole]: the Ki in [1] worked out at 8 nM; in data set [2], 1.6 nM.

`C=C(c1cccc(NC(=O)c2ncc(C)s2)c1)c1ccc2c(/C=C/c3ccccc3)n[nH]c2c1` [Example 22(a), 6-(1-(3-(5-Methyl-thiaxole-2-carboxoylamido)phenyl)-vinyl)-3-styryl-1H-indazole]: the Ki in data set [1] was 0.2 nM; in [2] it was 0.22 nM.

Consider `C=C(c1cccc(NC(=O)c2ccccc2)c1)c1ccc2c(/C=C/c3ccccc3)n[nH]c2c1` [Example 22(b), 6-(1-(3-(Benzoylamido)phenyl)-vinyl)-3-styryl-1H-indazole], for which the Ki amounted to 1.2 nM in [1] and 0.63 nM in data set [2].

On to `C=C(c1cccc(NC(C)=O)c1)c1ccc2c(/C=C/c3ccccc3)n[nH]c2c1` [Example 23, 6-(1-(3-Acetamido-phenyl)-vinyl)-3-styryl-1H-indazole], for which the Ki in data set [1] came out at 2.1 nM; in data set [2] it was 1.6 nM. The “% remain (HLM, 2 h)” value in [4] is 74%.

Turning to `COc1cc(-c2ccc3c(-c4nc5ccccc5[nH]4)n[nH]c3c2)c(C)cc1O` [Example 24(a), 4-[3-(1-H-Benzoimidazol-2-yl)-1-H-indazol-6-yl]-2-methoxy-5-methyl-phenol], the Ki in data set [1] came out at 98.3 nM; on CDK4/Cyclin D3 complex, 5.1 nM; at CDK2/Cyclin A (Table 2) it was 17 nM; at human CHK1 (FL-CHK1) (Table 2), 28 nM.

Regarding `Cc1cc(O)c(Cl)cc1-c1ccc2c(-c3nc4ccccc4[nH]3)n[nH]c2c1` [Example 24(c), 4-[3-(1-H-Benzoimidazol-2-yl)-1-H-indazol-6-yl]-2-chloro-5-methyl-phenol], the Ki in data set [1] turned out to be 14.2 nM; on CDK4/Cyclin D3 complex, 1.5 nM; at CDK2/Cyclin A (Table 2) it was 3.4 nM; at human CHK1 (FL-CHK1) (Table 2), 44 nM.

For `COc1cc(O)ccc1-c1ccc2c(-c3nc4ccccc4[nH]3)n[nH]c2c1` [Example 24(d), 3-1H-Benzoimidazol-2-yl-6-(4-hydroxy-2-methoxyphenyl)-1H-indazole], the Ki in data set [1] amounted to 125 nM; at CDK4/Cyclin D3 complex it was 17 nM; on CDK2/Cyclin A (Table 2), 83 nM; at human CHK1 (FL-CHK1) (Table 2), 56 nM.

Consider `Oc1ccc(-c2ccc3c(-c4nc5ccccc5[nH]4)n[nH]c3c2)c(Oc2ccccc2)c1` [Example 24(g), 3-1H-Benzoimidazol-2-yl-6-(2-phenoxy-4-hydroxyphenyl)-1H-indazole], for which the Ki in data set [1] is 194 nM; on CDK4/Cyclin D3 complex, 29 nM; on CDK2/Cyclin A (Table 2), 130 nM.

On to `COc1cc(-c2ccc3c(/C=C/c4ccc(NC(=O)CN)cc4)n[nH]c3c2)ccc1O` [Example 26, 6(4-Hydroxy-3-methoxyphenyl)-3-[E-2-(4-glycylamino-phenyl)-ethenyl]-1H-indazole], for which the Ki in data set [1] is 1.1 nM; on CDK2/Cyclin A (Table 1), 3.2 nM; on human CHK1 (FL-CHK1) (Table 1, read-out: CHK-1 Ki) it was 6.6 nM.

As to `C#CCNC(=O)c1ccccc1Nc1ccc2c(/C=C/c3ccccn3)n[nH]c2c1` [Example 39(b), 6-[2-(Prop-2-ynylcarbamoyl)phenylamino]-3-E-[2-(pyridin-2-yl)ethenyl]-1H-indazole], the inhibition at 1 µM on human FGF-R1 worked out at 50%; on LCK tyrosine kinase it was 10%. In data set [5] (25 mg/kg, vehicle PEG400:H2O pH 2.3 30:70), the “plasma half-life (T1/2)” value came to 11.8 h. Moreover, the AUC(0-t) in data set [5] (female, 25 mg/kg, vehicle PEG400:H2O pH 2.3 30:70) was above 31000 ng·h/mL. The Cmax in [5] (female, 25 mg/kg, vehicle PEG400:H2O pH 2.3 30:70, read-out: Cmax) was above 5000 ng/mL. In addition, the concentration at 7 h in data set [5] (female, 25 mg/kg, vehicle PEG400:H2O pH 2.3 30:70, read-out: Cmin (7 hr conc.)) was determined as 3150 ng/mL. Moreover, in [3] (+ albumin, read-out: HUVEC + albumin IC50), the IC50 is above 10 nM.

As to `Cc1cc(C(=O)Nc2cccc(Oc3ccc4c(/C=C/c5ccccn5)n[nH]c4c3)c2)n(C)n1` [Example 57, 6-[3-((1,3-Dimethyl-1H-pyrazol-5-yl)carboxamido)phenoxy]-3-E-[2-(pyridin-2-yl)ethenyl]-1H-indazole], the figures for the inhibition at 1 µM on human FGF-R1 and on LCK tyrosine kinase were 89% and 30%, respectively. Besides, the inhibition at 0.05 µM in [2] came out at 100%.

Take `CCn1nc(C)cc1C(=O)Nc1cc(Oc2ccc3c(/C=C/c4ncc[nH]4)n[nH]c3c2)ccc1C` [Example 58]: the results for the inhibition at 1 µM on human FGF-R1 and at LCK tyrosine kinase were 98% and 19%, respectively. The inhibition at 0.05 µM in [2] worked out at 98%.
